For assay [1], the system named is healthy males aged 50 to 69. Description: CogHealth cognitive function test (task-switching) with administration of astaxanthin. Type of assay: in vivo, human. To be noted: for Simple reaction, average reaction time: 10 subjects. From the text: CogHealth, mentioned above, is based on task-switching that is used for evaluating higher brain functions (executive functions), such as the suppression of an action or the reorganization of information processing (A. F. Kramer et al., Nature, Vol. 400, pp. 418-419 (1999), N. J. Cepeda et al, Developmental Psychology, Vol. 37, No. 5, pp. 715-730 (2001), and S. Hsieh and L. C. Liu, Brain Res. Cogn. Brain Res., Vol. 22, No. 2, pp. 165-175 (2005)). Furthermore, fMRI analysis of brain proves that frontal lobe activity and task-switching relate to each other, and thus CogHealth is accepted as a frontal lobe function test. […] In CogHealth measurement, analysis is performed by calculating an average RT (reaction time) for each task.
“Simple reaction” refers to a task of pressing a button when a card is flipped from face-down to face-up. “Choice reaction” refers to a task of pressing a button based on the judgment of whether the card flipped from face-down to face-up is red or black. In other words, the simple reaction and the choice reaction are tasks relating to reaction time and suppression time in the function of the human frontal lobe. The simple reaction time is the time taken to perform one reaction to one sensory stimulus, and the choice reaction time is the time necessary to recognize a type of a given stimulus, and to make a reaction depending on the type in a predetermined manner.
“Working memory” refers to a task of pressing a button based on the judgment of whether or not a flipped card is the same as the preceding card. “Delayed recall” refers to a task of pressing a button based on the judgment of whether or not a flipped card is the same as a card that was present in the delayed recall task. “Working memory” and “delayed recall” are tasks for measuring memory, such as immediate memory and episodic memory. Working memory is a concept that includes not only information storage for a short period but also cognitive information processing. Working memory is memory used for a very short period of time in units of seconds, but the delayed recall is memory used for a period of time slightly longer than that of the working memory.
“Divided attention” refers to a task of pressing a button when at least one of five cards moving up and down is brought into contact with an upper or lower set line, and is a task for measuring spatially divided attention ability. In other words, such divided attention is an ability not to concentrate on one point but to allocate attention to the surroundings (spatially divided attention ability or spatially allocated attention ability). The meaning of divided attention is entirely different from attention scattering.
The astaxanthin-containing soft capsules (each capsule contains 3 mg of astaxanthin) were administered to the test subjects by ingestion of two capsules with water twice a day after eating breakfast and supper. The administration period was 12 weeks.
In this example, in order to evaluate cognitive function, measurement using CogHealth (based on task-switching) and P300 (one of the event-related potentials of an electroencephalogram) was performed at 6 weeks and 12 weeks after starting administration.
The average RT (reaction time) was calculated for each of the tasks “simple reaction”, “choice reaction”, “working memory”, “delayed recall”, and “divided attention”. For two memory tasks (“working memory” and “delayed recall”), analysis was performed by also calculating the average AR (correct answer ratio).
For each index, a multiple comparison (Dunnet) was performed to obtain the P value. Regarding the result of P300, a Student's t-test was used additionally as a comparison before and after ingestion.

Assay [2] concerns healthy males aged 50 to 69. Description: P300 event-related potential of electroencephalogram, auditory oddball paradigm. The format is in vivo, human. The source says: On the other hand, event-related potential, which is a type of electroencephalogram, is a method for measuring cognitive functions by measuring the activity of the cerebral nerves during cognitive work. In particular, the P300 (P3b) component of event-related potential has been used to estimate the mental work load (A. F. Kramer and T. Weber, Handbook of psychophysiology (2nd Edition), J. T. Cacioppo et al. (Eds.), New York, Cambridge University Press, (2000) pp. 794-814). In a state where two tasks are simultaneously executed, when one task is made difficult (or the priority of one task is increased), the execution performance of the other task is lowered. Based on a study using such a dual-task method, the P300 amplitude is considered to clearly reflect the cognitive functions in the perception-central nerve level that caused the amplitude (E. Donchin et al., Psychophysiology: Systems, processes, and applications, M. G. H. Coles et al. (Eds.), New York, Guilford Press, (1986) pp. 702-718). That is to say, the P300 amplitude reflects the degree of attention, the degree of concentration, and the degree of cognitive load, for a task of recognizing surroundings.
In a P300 test, for example, an auditory oddball paradigm can be employed. […] Then, a change in the obtained amplitude before and after ingestion is measured based on the Grand Average. […]
In the electroencephalogram, an auditory oddball paradigm was used in which two types of sounds consisting of a high-pitched sound having a frequency of 2 KHz and a low-pitched sound having a frequency of 1 KHz were emitted from a headphone, and the test subjects were instructed to press a button as quickly and accurately as possible at the moment when the test subjects heard the high-pitched sound. […] The evoked electroencephalograms were measured with the frontal polar (Fpz) electrode as ground, and two linked electrode attached to the left and right earlobes as reference. […]

The mark [3] stands for this setting: After 6 weeks, two 3 mg capsules twice a day, oral, Mean ± SD.
[4] abbreviates: After 12 weeks, two 3 mg capsules twice a day, oral, Mean ± SD.

`CC1=C(/C=C/C(C)=C/C=C/C(C)=C/C=C/C=C(C)/C=C/C=C(C)/C=C/C2=C(C)C(=O)[C@@H](O)CC2(C)C)C(C)(C)C[C@H](O)C1=O` [astaxanthin]: in assay [1] (setting [3]), the “Choice reaction, average reaction time” value was 480.63 ± 39.87 ms; the “Delayed recall (Correct answer rate: %)” value is reported as 71.19 ± 5.98%; the “Delayed recall, average reaction time” value is 975.40 ± 190.75 ms; the “Divided attention, average reaction time” value was found to be 419.52 ± 59.32 ms. In addition, in assay [1] (setting [3]), the “Working memory, average reaction time” value came to 732.95 ± 174.83 ms and the “Simple reaction, average reaction time” value is 303.31 ± 33.80 ms. Further, in assay [1] (setting [4]), the “Choice reaction, average reaction time” value came out at 463.63 ± 26.49 ms; the “Delayed recall (Correct answer rate: %)” value is 70.71 ± 8.91%; the “Delayed recall, average reaction time” value came out at 916.77 ± 151.04 ms; the “Divided attention, average reaction time” value was 412.07 ± 51.97 ms. In assay [1] (setting [4]), the “Working memory (Correct answer rate: %)” value is 96.30 ± 3.94%; the “Working memory, average reaction time” value came out at 654.83 ± 128.42 ms; the “Simple reaction, average reaction time” value is 281.76 ± 33.56 ms. For the same compound, the “Change in reaction time for divided attention” value in assay [1] (before ingestion versus 6 weeks after ingestion, P=0.034) is on record as “significant reduction”. Moreover, the “Change in reaction time, all tasks” value in assay [1] (before ingestion versus 12 weeks after ingestion, P=0.013 to 0.034) is “significantly reduced”. Further, the “Effect on agility, judging ability and spatially allocated attention ability” value in assay [1] (overall conclusion from CogHealth) is recorded as “an effect of improving agility”. For the same compound, in assay [1] (versus before ingestion), the “Change in reaction time, all tasks of CogHealth” value is recorded as “a reduction in reaction time was confirmed”. The “Change in correct answer ratio, working memory” value in assay [1] (versus before ingestion, P=0.045) was “significant increase”. In assay [1] (versus before ingestion, P=0.991), the “Change in correct answer ratio, delayed recall” value was “no significant change”. For the same compound, in assay [2] (After 12 weeks, at Fz, two 3 mg capsules twice a day, oral, Mean ± SD), the “P300 Amplitude” value is −10.54 ± 3.39 μV. Moreover, the “Change in P300 amplitude at Fz” value in assay [2] (multiple comparisons, before/after comparison P=0.057) was “no significant change”. Besides, the “Effect on concentration on the recognition of surroundings” value in assay [2] (overall conclusion from P300) is listed as “an effect of improving concentration on the recognition of surroundings”.

(Values after patent publication US20090297492A1, “Method for Improving Cognitive Performance” (YAMAHA HATSUDOKI KABUSHIKI KAISHA, priority 2008, published 2009).)
